For the assay, the system named is male C3H mice irradiated with X-rays. The experiment in a line: 30-day survival of mice after X-ray irradiation (radiation protection). The assay is classed as in vivo. Here is the method:
Seven to thirteen male C3H mice aged 10 weeks (body weight: 25-28 g) per group were irradiated with X-rays (7.5-8.5 Gy) and their survival rate was determined 30 days after the irradiation. To each of drug-treated groups was intraperitoneally or subcutaneously administered 0.5% methylcellulose solution (0.3 ml) containing d-γ-tocopherol-N,N-dimethylglycine ester hydrochloride in an amount of 10-300 mg/Kg, before or after the irradiation. To a control group was intraperitoneally administered 0.5% methylcellulose solution in a volume of 0.3 ml per mouse.
Eight to eleven male C3H mice aged 10 weeks (body weight: 25-28 g) per group were irradiated with X-rays (7.5 Gy) and their survival rate was measured 30 days after the irradiation. To drug-treated groups was intraperitoneally administered 0.5% methylcellulose solution (0.3 ml) containing d-α-tocopherol-N,N-dimethylglycine ester hydrochloride, d-γ- or d-α-tocotrienol-N,N-dimethylglycine ester hydrochloride, d-γ- or dl-α-tocopherol phosphate disodium salt, or d-γ-tocopherol-N-methyl-L-proline ester hydrochloride, respectively, in an amount of 100 mg/Kg, immediately after the irradiation. To a control group was intraperitoneally administered 0.5% methylcellulose solution in a volume of 0.3 ml per mouse.

[1] abbreviates: 100 mg/kg i.p., 7.5 Gy X-rays, administered immediately after irradiation, C3H mice (Table 2).

As for `CC(C)=CCCC(C)=CCCC(C)=CCCC1(C)CCc2c(C)c(OC(=O)CN(C)C)c(C)c(C)c2O1.Cl` (stereo not drawn) [d-α-Tocotrienol-N,N-dimethylglycine ester hydrochloride], under setting [1], the “Survival rate after 30 days (%)” value stood at 91%.

As to `Cc1c(OP(=O)([O-])[O-])cc2c(c1C)OC(C)(CCCC(C)CCCC(C)CCCC(C)C)CC2.[Na+].[Na+]` (stereo not drawn) [d-γ-Tocopherol phosphate disodium salt], under setting [1], the “Survival rate after 30 days (%)” value amounted to 70%.

With `CC(C)=CCCC(C)=CCCC(C)=CCCC1(C)CCc2cc(OC(=O)CN(C)C)c(C)c(C)c2O1.Cl` (stereo not drawn) [d-γ-Tocotrienol-N,N-dimethylglycine ester hydrochloride], the “Survival rate after 30 days (%)” value under setting [1] came out at 85%.

Regarding `Cc1c(OC(=O)CN(C)C)cc2c(c1C)OC(C)(CCCC(C)CCCC(C)CCCC(C)C)CC2.Cl` (stereo not drawn) [d-γ-tocopherol-N,N-dimethylglycine ester hydrochloride], the “Survival rate after 30 days (%)” value (10 mg/kg i.p., 7.5 Gy X-rays, administered immediately after irradiation, C3H mice) was found to be 10%; the “Survival rate after 30 days (%)” value (20 mg/kg i.p., 7.5 Gy X-rays, administered immediately after irradiation, C3H mice) is listed as 60%; the “Survival rate after 30 days (%)” value (50 mg/kg i.p., 7.5 Gy X-rays, administered immediately after irradiation, C3H mice) was 85%; the “Survival rate after 30 days (%)” value (100 mg/kg S.C. administration, 7.5 Gy X-rays, administered immediately after irradiation, C3H mice) turned out to be 85%; the “Survival rate after 30 days (%)” value (100 mg/kg i.p., 7.5 Gy X-rays, administered 30 min. before irradiation, C3H mice) was determined as 60%; the “Survival rate after 30 days (%)” value (100 mg/kg i.p., 7.5 Gy X-rays, administered 1 hr. after irradiation, C3H mice) is 88%. The “Survival rate after 30 days (%)” value (100 mg/kg i.p., 7.5 Gy X-rays, administered 10 hrs. after irradiation, C3H mice) was 75%; the “Survival rate after 30 days (%)” value (100 mg/kg i.p., 7.5 Gy X-rays, administered 24 hrs. after irradiation, C3H mice) is listed as 40%; the “Survival rate after 30 days (%)” value (100 mg/kg i.p., 7.5 Gy X-rays, administered immediately after irradiation, C3H mice (Table 1)) stood at 98%; the “Survival rate after 30 days (%)” value (100 mg/kg i.p., 7.5 Gy X-rays, administered immediately before irradiation, C3H mice) is recorded as 80%; the “Survival rate after 30 days (%)” value (100 mg/kg i.p., 8 Gy X-rays, administered immediately after irradiation, C3H mice) worked out at 78%; the “Survival rate after 30 days (%)” value (100 mg/kg i.p., 8.5 Gy X-rays, administered immediately after irradiation, C3H mice) is 37%. For the same molecule, the “Survival rate after 30 days (%)” value (300 mg/kg i.p., 7.5 Gy X-rays, administered immediately after irradiation, C3H mice) was determined as 55%.

With `Cc1c(C)c2c(c(C)c1OC(=O)CN(C)C)CCC(C)(CCCC(C)CCCC(C)CCCC(C)C)O2.Cl` (stereo not drawn) [d-α-tocopherol-N,N-dimethylglycine ester hydrochloride], the “Survival rate after 30 days (%)” value under setting [1] came out at 95%.

`Cc1c(C)c2c(c(C)c1OP(=O)([O-])[O-])CCC(C)(CCCC(C)CCCC(C)CCCC(C)C)O2.[Na+].[Na+]` (racemic) [dl-α-Tocopherol phosphate disodium salt]: the “Survival rate after 30 days (%)” value under setting [1] was 40%.

`Cc1c(OC(=O)[C@@H]2CCCN2C)cc2c(c1C)OC(C)(CCCC(C)CCCC(C)CCCC(C)C)CC2.Cl` (stereo partly drawn) [d-γ-tocopherol-L-N-methylproline ester hydrochloride]: the “Survival rate after 30 days (%)” value under setting [1] was 90%.

Values taken from patent US8299277B2, “Radiation protection drug containing tocopherol or tocotrienol compound ester derivative as active ingredient” (priority 2006, dated 2012).
